# Experimental data taken from patent US10864216B2, “Phenothiazine diaminium salts and their use” (WisTa Laboratories Ltd., priority 2011, dated 2020).
# Marks after values point to notes of the source that are not given here.
# Assays:
# [1] = target: full-length human tau protein (htau40) and truncated tau (295-390, dGA) in 3T6 mouse cells (Homo sapiens, UniProt P10636); experiment: Cell-based tau aggregation assay
# [2] = target: T1, truncated tau (amino acids 297-391) in solution binding to solid-phase bound truncated tau (residues 297-390) (Homo sapiens, UniProt P10636); experiment: Solid phase assay for tau aggregation (tau-tau binding, B50); settings: concentration at which tau-tau binding is decreased by 50%; mean ± SE
# T1 construct: made in house
# T1 sequence (P10636 614-708): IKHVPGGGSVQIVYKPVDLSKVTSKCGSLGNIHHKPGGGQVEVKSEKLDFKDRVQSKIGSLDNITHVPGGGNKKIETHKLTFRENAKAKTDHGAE
# T1 sequence (P10636 614-707): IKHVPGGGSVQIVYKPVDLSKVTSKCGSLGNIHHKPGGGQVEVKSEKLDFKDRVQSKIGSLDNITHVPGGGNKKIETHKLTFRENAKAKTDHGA
# Excerpt: The tau-tau aggregation assay uses purified recombinant tau fragments in a solid-phase immunoassay. Methods are described in detail in e.g. WO 96/30766. Briefly, the assay measures the binding of truncated tau (amino acids 297-391) in solution to solid-phase bound truncated tau (residues 297-390). Binding of the former is detected with the antibody mAb 423, which specifically recognises peptides containing a C-terminal Glu-391 residue. The Tau complex formed in vitro is similar to the aggregated complex that forms in Alzheimer's disease as a consequence of the stability of the pathological Tau-Tau binding interaction through a 94/95-amino acid repeat domain (residues 297-390), found in the proteolytically stable core of the paired helical filament.
# The B50 value (expressed as mean±SE) is determined as the concentration of compound at which tau-tau binding is decreased by 50%.
# [3] = Solubility of LMT salts in aqueous HCl solutions at 37° C.; type: physicochemical; settings: lower limit complete dissolution, upper limit saturation
# Description: Two aqueous solutions (pH 2.00 and 3.01 at 21.4° C.) were prepared by carefully adding HCl (5 M) to deionised water. In each experiment a 5 ml aliquot of one of the aforementioned solutions was heated to 37° C. […] This step was repeated until no further dissolution took place.
# minipigs = experiment: Studies on the hemopoietic system (methemoglobinemia), minipig; type: in vivo
# Description: Studies on the hemopoietic system were performed in rat, monkey and minipig.
# rats = experiment: Studies on the hemopoietic system (methemoglobinemia), rat; type: in vivo
# female Wistar rats = experiment: 14 day oral administration to rats: toxicology and neutrophil response; type: in vivo; settings: for Neutrophils (total neutrophils as percentage of total white cells) / Dose-related deaths / Early neutrophils (frequency of presence of immature neutrophils per animal group): 14 days oral; for Neutrophils (total neutrophils as percentage of total white cells): 95 mg MT/kg/day Days 1-10, 60 mg MT/kg/day Days 11-14; for Dose-related deaths: animal numbers per group of 8 rats; for Early neutrophils (frequency of presence of immature neutrophils per animal group): animals per group of 8
# Excerpt: Table: Neutrophil response in rats following 14 day oral administration of different salt forms of LMT.
# [4] = system: rat, stomach (non glandular); experiment: Gastric irritation: 28-day rat study with MTC or LMT.2HBr; type: in vivo; set-up: key to Gastritis, grade 3 (moderate): incidence / Inflammatory cell infiltration, grade 1 (minimal): incidence / Gastritis, grade 1 (minimal): incidence / Gastritis, grade 2 (slight): incidence / Gastritis, grade 3: incidence predicted with 10 per group / Gastritis, grade 1: incidence predicted with 10 per group / Gastritis, grade 2: incidence predicted with 10 per group: “—” = finding not present; 1 = minimal; 2 = slight; 3 = moderate; 4 = moderately severe; 5 = severe; settings: 90 mg/kg/day; for Gastritis, total incidence predicted with 10 per group: number of animals of 10; for Gastritis, grade 1: incidence predicted with 10 per group / Gastritis, grade 2: incidence predicted with 10 per group / Gastritis, grade 3: incidence predicted with 10 per group: scaled from 5 to 10 examined
# rat = experiment: 6-month study of LMT.2HBr in the rat; type: in vivo; settings: high dose 45 mg MT/kg/day
# Excerpt: The decreased neutrophils or neutropaenia observed after LMT.2HBr although reversible would make patients more susceptible to bacterial infections as their primary role is in destruction of bacteria.
# [5] = aqueous HCl solution pH 2.00 (21.4° C.)
# [6] = aqueous HCl solution pH 3.01 (21.4° C.)
# [7] = female rats, 28-day, terminal kill, 5 examined, cell = number of animals
# [8] = female rats, cell = number of animals
# [9] = male rats, 28-day, terminal kill, 5 examined, cell = number of animals
# [10] = male rats, cell = number of animals
smiles,measurement,setting,value
"CN(C)c1ccc2c(c1)Sc1cc(N(C)C)ccc1N2 [LMT.2TsOH, N,N,N′,N′-Tetramethyl-10H-phenothiazine-3,7-diaminium bis(p-toluenesulfonate)]","THx, therapeutic index (THx = LD50/EC50)",[1]; bis(p-toluenesulfonate),140
same,IC50,[2],296 ± 37.9 µM
"CN(C)c1ccc2c(c1)Sc1cc(N(C)C)ccc1N2 [LMT.2HBr, N,N,N′,N′-tetramethyl-10H-phenothiazine-3,7-diaminium di(bromide)]",Solubility g/5 ml (37° C.),[3]; [5],4.822-5.096 g/5 ml
same,Solubility g/5 ml (37° C.),[3]; [6],4.726-5.236 g/5 ml
same,Lowest dose at which methemoglobinemia was observed,minipigs,10 mg MT/kg/day
same,Lowest dose at which methemoglobinemia was observed,rats,15 mg MT/kg/day
same,Neutropaenia in prepared blood smears (mature neutrophils),female Wistar rats; 14 days,marked depletion of mature neutrophils
same,Numbers of neutrophilic granulocytes in the bone marrow,female Wistar rats; 14 days,considerably greater
same,Treatment-related deaths,female Wistar rats; 14 days,Treatment-related deaths occurred
same,Neutrophils (total neutrophils as percentage of total white cells),female Wistar rats,3.00%*
same,Dose-related deaths,female Wistar rats,2/8
same,Early neutrophils (frequency of presence of immature neutrophils per animal group),female Wistar rats,8/8
same,"Gastritis, grade 1 (minimal): incidence",[4]; [7],—
same,"Gastritis, grade 2 (slight): incidence",[4]; [7],1
same,"Gastritis, grade 3 (moderate): incidence",[4]; [7],1
same,"Inflammatory cell infiltration, grade 1 (minimal): incidence",[4]; [7],—
same,"Gastritis, total incidence predicted with 10 per group",[4]; female rats,4
same,"Gastritis, grade 1: incidence predicted with 10 per group",[4]; [8],—
same,"Gastritis, grade 2: incidence predicted with 10 per group",[4]; [8],2
same,"Gastritis, grade 3: incidence predicted with 10 per group",[4]; [8],2
same,"Gastritis, grade 1 (minimal): incidence",[4]; [9],1
same,"Gastritis, grade 2 (slight): incidence",[4]; [9],—
same,"Gastritis, grade 3 (moderate): incidence",[4]; [9],1
same,"Gastritis, total incidence predicted with 10 per group",[4]; male rats,4
same,"Gastritis, grade 1: incidence predicted with 10 per group",[4]; [10],2
same,"Gastritis, grade 2: incidence predicted with 10 per group",[4]; [10],—
same,"Gastritis, grade 3: incidence predicted with 10 per group",[4]; [10],2
same,Mature neutrophils and granulocytes in the bone marrow,rat,Decreased numbers of mature neutrophils and granulocytes
same,"THx, therapeutic index (THx = LD50/EC50)",[1]; listed as LMT•2HBr,92
same,EC50 (μM),[1]; listed as LMT•2HBr,0.66 ± 0.15 (n = 8) μM
same,IC50,[2],472 ± 27.6 µM
"O=S(=O)(O)CCS(=O)(=O)O [EDSA, ethanedisulfonic acid, reference compound]",IC50,[2],> 500 µM
"CN(C)c1ccc2c(c1)Sc1cc(N(C)C)ccc1N2 [LMT.EDSA, N,N,N′,N′-Tetramethyl-10H-phenothiazine-3,7-diaminium ethanedisulfonate]","THx, therapeutic index (THx = LD50/EC50)",[1]; listed as LMT•EDSA,115
same,EC50 (μM),[1]; listed as LMT•EDSA,0.68 ± 0.32 (n = 4) μM
same,IC50,[2],400 ± 17.6 µM
"CS(=O)(=O)O [MSA, methansulfonic acid, reference compound]",IC50,[2],> 500 µM
"CN(C)c1ccc2c(c1)Sc1cc(N(C)C)ccc1N2 [LMT.2EsOH, N,N,N′,N′-Tetramethyl-10H-phenothiazine-3,7-diaminium bis(ethanesulfonate)]","THx, therapeutic index (THx = LD50/EC50)",[1]; listed as LMT•2EsOH,100
same,EC50 (μM),[1]; listed as LMT•2EsOH,0.52 ± 0.13 (n = 3) μM
same,IC50,[2],297 ± 75.1 µM
"CN(C)c1ccc2c(c1)Sc1cc(N(C)C)ccc1N2 [LMT.NDSA, N,N,N′,N′-Tetramethyl-10H-phenothiazine-3,7-diaminium naphthalenedisulfonate]","THx, therapeutic index (THx = LD50/EC50)",[1]; listed as LMT•NDSA,108
same,EC50 (μM),[1]; listed as LMT•NDSA,0.71 ± 0.34 (n = 4) μM
same,IC50,[2],334 ± 63.2 µM
"CN(C)c1ccc2c(c1)Sc1cc(N(C)C)ccc1N2.Cl.Cl [LMT.2HCl, N,N,N′,N′-tetramethyl-10H-phenothiazine-3,7-diaminium dichloride]",Solubility g/5 ml (37° C.),[3]; [5],4.404-4.961 g/5 ml
same,Solubility g/5 ml (37° C.),[3]; [6],4.978-6.029 g/5 ml
same,Neutropaenia in prepared blood smears (mature neutrophils),female Wistar rats; 14 days,no decrease
same,Neutrophils (total neutrophils as percentage of total white cells),female Wistar rats,19.90%
same,Dose-related deaths,female Wistar rats,0/8
same,Early neutrophils (frequency of presence of immature neutrophils per animal group),female Wistar rats,2/8
same,"THx, therapeutic index (THx = LD50/EC50)",[1],102
same,IC50,[2],361 ± 38.2 µM
